Assay results as given in US7498404B2, “Compositions, methods and uses for a novel family of peptides” (priority 2004, dated 2009).

Columns and labels:
[1] = biological target: Module 8 A-domain protein (Brevibacillus texasporus, UniProt Q2VQ14); assay: ATP-PPi exchange assay, Module 8 A-domain; type: biochemical; details: 0.5 mM amino acid, 2 μM protein, 37° C., 15 min
Experimental: (§1) Cloning, overexpression, and purification of His10-tagged BT A-domain proteins. DNA fragments encoding the A-domains of the BT NRPS Modules 8, 5, 7, 4 and 2 (Bt8A, Bt5A, Bt7A, Bt4A and Bt2A) were PCR-amplified and the PCR products were inserted into the His10-tag recombinant protein expression vector pET16b (Novagen). The A-domain borders were determined as defined by (Konz, et al., 1999). The expression constructs were transformed into the E.coli BL21 -AI strain (Invitrogen). Transformants were grown in L-broth at 37° C. to an A600 of 0.6 and then induced with 1 mM IPTG (isopropyl-β-D-thiogalactopyranoside) plus 0.2% L-arabinose. The cells were allowed to grow for two additional hours at 30° C. before being harvested. Purification of the His10-tag recombinant proteins was achieved using the TALON metal affinity resins (BD Biosciences) under conditions recommended in the manual with modifications. Briefly, the E. coli cells were broken by sonication. Cell lysates were cleared by centrifugation at 25,000× g for one hour. […] Eluted proteins were dialyzed against a buffer (50 mM HEPES, pH 8.0, 100 mM sodium chloride, 10 mM magnesium chloride, and 1 mM EDTA) and then analyzed with SDS PAGE plus Coomassie Blue staining. […] Concentrations of the purified proteins were determined by using the calculated molar extinction coefficient for the A280.
(§2) ATP-PPi exchange assay. […] The charcoal/water suspension was added to a scintillation vial containing 5.0 ml of scintillation fluid, and the bound radioactivity was determined by liquid scintillation counting. […]
(§3) Since a purified recombinant A-domain of an NRPS module can selectively and efficiently activate the cognate amino acid substrate of the NRPS module in an ATP-PPi exchange assay (Konz, et al., 1999; Mootz & Marahiel, 1997), ATP-PPi exchange assays have been used to experimentally establish NRPS module specificities and novel NRPS codons. […] A-domain specificities were determined in ATP-PPi exchange and aa Km assays (see Methods and Materials), and the results are shown in FIG. 5. […]

[2] = biological target: Module 5 A-domain protein (Brevibacillus texasporus, UniProt Q2VQ15); assay: ATP-PPi exchange assay, Module 5 A-domain; type: biochemical; details: 0.5 mM amino acid, 0.2 μM protein, 37° C., 15 min
Experimental: as §1, §2, §3

[3] = biological target: Module 4 A-domain protein (Brevibacillus texasporus, UniProt Q2VQ15); assay: ATP-PPi exchange assay, Module 4 A-domain; type: biochemical; details: 0.5 mM amino acid, 0.2 μM protein, 37° C., 15 min
Experimental: as §1, §2, §3

[4] = tested on: Module 2 A-domain protein; assay: ATP-PPi exchange assay, Module 2 A-domain; type: biochemical, Brevibacillus texasporus; details: 0.5 mM amino acid, 37° C., 15 min
Experimental: Cloning, overexpression, and purification of His10-tagged BT A-domain proteins. DNA fragments encoding the A-domains of the BT NRPS Modules 8, 5, 7, 4 and 2 (Bt8A, Bt5A, Bt7A, Bt4A and Bt2A) were PCR-amplified and the PCR products were inserted into the His10-tag recombinant protein expression vector pET16b (Novagen). The A-domain borders were determined as defined by (Konz, et al., 1999). The expression constructs were transformed into the E.coli BL21 -AI strain (Invitrogen). Transformants were grown in L-broth at 37° C. to an A600 of 0.6 and then induced with 1 mM IPTG (isopropyl-β-D-thiogalactopyranoside) plus 0.2% L-arabinose. The cells were allowed to grow for two additional hours at 30° C. before being harvested. Purification of the His10-tag recombinant proteins was achieved using the TALON metal affinity resins (BD Biosciences) under conditions recommended in the manual with modifications. Briefly, the E. coli cells were broken by sonication. Cell lysates were cleared by centrifugation at 25,000× g for one hour. His-tagged recombinant proteins were then incubated with the TALON resin, washed, and eluted with 500 mM imidazole. Eluted proteins were dialyzed against a buffer (50 mM HEPES, pH 8.0, 100 mM sodium chloride, 10 mM magnesium chloride, and 1 mM EDTA) and then analyzed with SDS PAGE plus Coomassie Blue staining. […] Concentrations of the purified proteins were determined by using the calculated molar extinction coefficient for the A280.
ATP-PPi exchange assay. ATP-PPi exchange assays were performed to determine the substrate specificity of an A-domain. ATP-PPi exchanges were assayed as previously described (Stachelhaus, et al., 1998) with minor modifications. The assay mixture contained 50 mM HEPES (pH 8.0), 100 mM NaCl, 10 mM MgCl2, 2 mM ATP, 0.5 mM amino acid, 0.05 mM PPi, 0.15 μCi tetrasodium [^32P]pyrophosphate. Exchange was initiated by addition of purified recombinant A-domain proteins to a total volume of 0.1 ml. The protein concentrations were 0.2 μM for Module 4 and Module 5 A-domains while 2 μM for Module 7 and Module 8 A-domains. After incubation at 37° C. for 15 min, the reaction was stopped by addition of 0.5 ml of Termination Mix (100 mM tetrasodium pyrophosphate, 3.5% HClO4, and 1.6% [w/v] activated charcoal). The charcoal was pelleted by centrifugation, washed first with 40 mM pyrophosphate plus 1.4% perchloric acid and then with water, and was re-suspended in 0.5 ml of water. The charcoal/water suspension was added to a scintillation vial containing 5.0 ml of scintillation fluid, and the bound radioactivity was determined by liquid scintillation counting. The apparent Km values were determined with substrate concentrations ranging from 0.1 to 10 mM.
Since a purified recombinant A-domain of an NRPS module can selectively and efficiently activate the cognate amino acid substrate of the NRPS module in an ATP-PPi exchange assay (Konz, et al., 1999; Mootz & Marahiel, 1997), ATP-PPi exchange assays have been used to experimentally establish NRPS module specificities and novel NRPS codons. Recombinant A-domains of Modules 8, 5, 7 ,4 and 2 of the BT NRPS were produced and purified as described in Methods and Materials. Almost completely soluble recombinant A-domain proteins were obtained. A-domain specificities were determined in ATP-PPi exchange and aa Km assays (see Methods and Materials), and the results are shown in FIG. 5. […]

straight run broilers = assay: Growth promoting Studies 3-1 and 3-2, pelleted starter feed, batteries; type: in vivo, chicken; details: BT1583 12 ppm, BMD 50 ppm, COB 90 ppm, alone or combined; for 20-day cumulative weight gain, Mean: Table 18; for 21-day cumulative weight gain, estimated marginal Mean: Table 20; for 21-day cumulative weight gain, Duncan homogeneous subsets: Table 21; for 20-day cumulative feed conversion rate, Duncan homogeneous subsets: Table 25
Description: Eight (8) study repetitions per treatment were used, again with 4 birds per pen.

[5] = substrate: CC(C)[C@H](N)C(=O)O; assay: ATP-PPi exchange assay, Module 5 A-domain; type: biochemical, Brevibacillus texasporus; details: other: substrate 0.1 to 10 mM; pH 8.0
Experimental: as §1, with “harvested.” for “harvested. Purification of the His10-tag recombinant proteins was achieved using the TALON metal affinity resins (BD Biosciences) under conditions recommended in the manual with modifications. Briefly, the E. coli cells were broken by sonication. Cell lysates were cleared by centrifugation at 25,000× g for one hour.”
as §2

[6] = substrate: CC[C@H](C)[C@H](N)C(=O)O; assay: ATP-PPi exchange assay, Module 5 A-domain; type: biochemical, Brevibacillus texasporus; details: other: substrate 0.1 to 10 mM; pH 8.0
Experimental: as §1, with “harvested.” for “harvested. Purification of the His10-tag recombinant proteins was achieved using the TALON metal affinity resins (BD Biosciences) under conditions recommended in the manual with modifications. Briefly, the E. coli cells were broken by sonication. Cell lysates were cleared by centrifugation at 25,000× g for one hour.”
as §2

[7] = substrate: CC(C)[C@H](N)C(=O)O; assay: ATP-PPi exchange assay, Module 8 A-domain; type: biochemical, Brevibacillus texasporus; details: other: substrate 0.1 to 10 mM; pH 8.0
Experimental: as §1, with “harvested.” for “harvested. Purification of the His10-tag recombinant proteins was achieved using the TALON metal affinity resins (BD Biosciences) under conditions recommended in the manual with modifications. Briefly, the E. coli cells were broken by sonication. Cell lysates were cleared by centrifugation at 25,000× g for one hour.”
as §2

[8] = substrate: CC[C@H](C)[C@H](N)C(=O)O; assay: ATP-PPi exchange assay, Module 4 A-domain; type: biochemical, Brevibacillus texasporus; details: other: substrate 0.1 to 10 mM; pH 8.0
Experimental: as §1, with “harvested.” for “harvested. Purification of the His10-tag recombinant proteins was achieved using the TALON metal affinity resins (BD Biosciences) under conditions recommended in the manual with modifications. Briefly, the E. coli cells were broken by sonication. Cell lysates were cleared by centrifugation at 25,000× g for one hour.”
as §2

CC(C)[C@H](N)C(=O)O [L-Val]
relative substrate activation (highest activity defined as 100%) [1]: 100%
relative substrate activation (highest activity defined as 100%) [2]: 100%
relative substrate activation (highest activity defined as 100%) [3]: 9%
relative substrate activation (highest activity defined as 100%) [4]: 67%

CC[C@@]1([C@@H]2O[C@@H]([C@H]3O[C@@](O)(CO)[C@H](C)C[C@@H]3C)C[C@@H]2C)CC[C@H]([C@]2(C)CC[C@]3(C[C@H](O)[C@@H](C)[C@@H]([C@@H](C)[C@@H](OC)[C@H](C)C(=O)O)O3)O2)O1 [Monensin, reference compound]
20-day cumulative weight gain, Mean (straight run broilers): 792.8438
21-day cumulative weight gain, estimated marginal Mean (straight run broilers): 792.844
21-day cumulative weight gain, Duncan homogeneous subsets (straight run broilers): 792.8438
20-day cumulative feed conversion rate, Duncan homogeneous subsets (straight run broilers): 1.3712

Bacitracin MD [BMD, reference compound]
20-day cumulative weight gain, Mean (straight run broilers): 832.9688
21-day cumulative weight gain, estimated marginal Mean (straight run broilers): 832.969
21-day cumulative weight gain, Duncan homogeneous subsets (straight run broilers): 832.9688
20-day cumulative feed conversion rate, Duncan homogeneous subsets (straight run broilers): 1.3397

B1: Module 5 A-domain protein (Brevibacillus texasporus) (protein)
chain: DKTIHQQFEQKVEENPDQIALLFKDKEITYGQLNAKANQFARVLRKHGVQPDQVVGLITDRSIEMMIGILAILKAGGAYLPIDPSYPLERITYMLEDSQAQLLIVQEAAMIPEGYQGKVLLLAEECWMQEEASNLELINDAQDLAYVMYTSGSTGKPKGNLTTHQNILRTIINNGFIEIVPADRLLQLSNYAFDGSTFDIYSALLNGATLVLVPKEVMLNPMELARIVREQDITVSFMTTSLFHTLVELDVTSMKSIRKVVFGGEKASYKHVEKALDYLGEGRLVNGYGPTETTVFATTYTVDSSIKETGIVPIGRPLNNTSVYILNENNQPQPIGVPGELCVGGAGIARGYLNRPELTAERFVDNPFLVGDRMYRTGDMARFLPDGNIEYIGRMDEQVKIRGHRIELGEIEKSLLEYPAISEAVLVAKRDEQGHSYLCAYVVSTDQWTVAKVRQHILEALPEYMVPSYFVELEKLPLTSNGKVDKRALPEPDRVITNEYV
Km [5]: 1110 µM
Km [6]: 2780 µM

B2: Module 8 A-domain protein (Brevibacillus texasporus) (protein)
chain: ALVFGEAQLTYRELNEKANQMARGLRKQGVLPDQVIGLLTDRSLEMIIAILAIFKAGGAYMPIDPSYPSERIQYMLADSRTHLLLVQKAEMIPANYQGEVLLLTEDSWMDENTDNLDLVNQAQDLAYVMYTSGSTGKPKGNLTTHQNIVKTIMNNGYMEITPNDRLLQLSNYAFDGSTFDIYSALLNGASLILVPTHVLMNPTDLASVIQDQHITVSFMTTSLFNTLVELDVTSLKHMRKVVFGGEKASIKHVEKALDYLGAGRLVNGYGPTETTVFATTYTVDHTIKETGIMPIGRPLNNTKVFILGADNQLQPIGALGELCVSGEGLARGYLNLPELTADRFVENPFMRGERMYRTGDLARWLPDGSIEYVGRIDEQVKIRGHRIELGEIEARLLEHPAISETVLLAKQDEQGHSFLCAYLVTNGAWSVAELRKHIKETLPDSMVPSYFIEIDKMPLTSNGKADKRALPEPDVQQVSSY
Km [7]: 2750 µM

B3: Module 4 A-domain protein (Brevibacillus texasporus) (protein)
chain: QLFEEQVDKNPNQIALVFKEEKLTYGEVNAKANQLAYVLRKQGVQPNDVIGIITERSPEMIIGILAIFKAGGAYMPIDPSYPAERIQYMLQDNQTKLLLVQKQEMIPANYQGEVLFLTQESWMHEETSNPAHITQAQALAYVMYTSGSTGEPKGILTTHQNIMKTVIHNGYVEITPGDCLSQLSNYAFDGSTFEIYGALLHGATLLLVTKEAVLNMNELARLIKKEQVTVSFMTTALFNTLVDLDITCFQSIRKVLFGGELASVKHVLKALDYLGEHRVINVYGPTETTVYATYYSVDHSMLTRASVPIGRPINNTKAYIVNTDGQPQPIGVVGELCIGGEGVACGYLNRPELTKKHFVDNPFVLGERMYCTGDLARFLPDGNIEYIGRMDEQVKIRGHRIELGEIEKVLLQHPAISETVLLAKRDEQGHSYLCAYIVGQVFWTVTELRQHLMESLPEYMVPSYFIEIEKLPLTANGKVDKRALPEPDRKMGSAYV
Km [8]: 500 µM
